In brackets after ≈: the same amount, converted by molar mass. Where two headings read alike, the source gives them in different places.
How the values were obtained:
Botrtyis cinerea (Bc) = experiment: Growth inhibition assay of fungal pathogens; format: cell-based; details: 48 h, read-out: Concentration at 90% Inhibition Bc
In short: (§1)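 Spores from sub-cultured plates were diluted in 17% V8 liquid medium and exposed to compound at final 50, 10 and 2 ppm or 2, 0.4 and 0.08 ppm with 2% DMSO. OD600 and visual ratings were taken at 24 and 48 h, blank-subtracted. Percent growth inhibition came from 48 h readings against the 2% DMSO control.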

[1] = test system: Fusarium moniliforme (Fm); experiment: Growth inhibition assay of fungal pathogens; format: cell-based; details: Fusarium verticillioides, 48 h, read-out: Concentration at 90% Inhibition Fm
In short: as §1

Rhizoctonia solani (Rs) = experiment: Growth inhibition assay of fungal pathogens; format: cell-based; details: 48 h, read-out: Concentration at 90% Inhibition Rs
In short: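 Spores, or mycelial plugs for Rhizoctonia, in 17% V8 medium (¼ PDB for plugs) were exposed to compound at final 50, 10 and 2 ppm or 2, 0.4 and 0.08 ppm, with 2% DMSO. Growth was read by OD600 with blank subtraction plus visual rating; percent inhibition at 48 h is relative to 2% DMSO control.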

[2] = test system: Phytophthora capsici (Pc); experiment: Growth inhibition assay of fungal pathogens; format: cell-based; details: 48 h, read-out: Concentration at 90% Inhibition Pc
In short: as §1

Diplodia maydis (Dm) = experiment: Growth inhibition assay of fungal pathogens; format: cell-based; details: Stenocarpella maydis, 48 h, read-out: Concentration at 90% Inhibition Dm
In short: as §1

[3] = test system: Fusarium virguliforme (Fv); experiment: Growth inhibition assay of fungal pathogens; format: cell-based; details: 48 h, read-out: Concentration at 90% Inhibition Fv
In short: as §1

Septoria tritici (St) = experiment: Growth inhibition assay of fungal pathogens; format: cell-based; details: Zymoseptoria tritici, 48 h, read-out: Concentration at 90% Inhibition St
In short: as §1

[4] = test system: Collectotrichum graminicola (Cg); experiment: Growth inhibition assay of fungal pathogens; format: cell-based; details: 48 h, read-out: Concentration at 90% Inhibition Cg
In short: as §1

fACC2 = fACC2 (UniProt Q00955); experiment: In vitro ACC2 inhibition assay (ADP-Glo), fungal ACC2; format: biochemical
Chain of fACC2 (Q00955 whole entry): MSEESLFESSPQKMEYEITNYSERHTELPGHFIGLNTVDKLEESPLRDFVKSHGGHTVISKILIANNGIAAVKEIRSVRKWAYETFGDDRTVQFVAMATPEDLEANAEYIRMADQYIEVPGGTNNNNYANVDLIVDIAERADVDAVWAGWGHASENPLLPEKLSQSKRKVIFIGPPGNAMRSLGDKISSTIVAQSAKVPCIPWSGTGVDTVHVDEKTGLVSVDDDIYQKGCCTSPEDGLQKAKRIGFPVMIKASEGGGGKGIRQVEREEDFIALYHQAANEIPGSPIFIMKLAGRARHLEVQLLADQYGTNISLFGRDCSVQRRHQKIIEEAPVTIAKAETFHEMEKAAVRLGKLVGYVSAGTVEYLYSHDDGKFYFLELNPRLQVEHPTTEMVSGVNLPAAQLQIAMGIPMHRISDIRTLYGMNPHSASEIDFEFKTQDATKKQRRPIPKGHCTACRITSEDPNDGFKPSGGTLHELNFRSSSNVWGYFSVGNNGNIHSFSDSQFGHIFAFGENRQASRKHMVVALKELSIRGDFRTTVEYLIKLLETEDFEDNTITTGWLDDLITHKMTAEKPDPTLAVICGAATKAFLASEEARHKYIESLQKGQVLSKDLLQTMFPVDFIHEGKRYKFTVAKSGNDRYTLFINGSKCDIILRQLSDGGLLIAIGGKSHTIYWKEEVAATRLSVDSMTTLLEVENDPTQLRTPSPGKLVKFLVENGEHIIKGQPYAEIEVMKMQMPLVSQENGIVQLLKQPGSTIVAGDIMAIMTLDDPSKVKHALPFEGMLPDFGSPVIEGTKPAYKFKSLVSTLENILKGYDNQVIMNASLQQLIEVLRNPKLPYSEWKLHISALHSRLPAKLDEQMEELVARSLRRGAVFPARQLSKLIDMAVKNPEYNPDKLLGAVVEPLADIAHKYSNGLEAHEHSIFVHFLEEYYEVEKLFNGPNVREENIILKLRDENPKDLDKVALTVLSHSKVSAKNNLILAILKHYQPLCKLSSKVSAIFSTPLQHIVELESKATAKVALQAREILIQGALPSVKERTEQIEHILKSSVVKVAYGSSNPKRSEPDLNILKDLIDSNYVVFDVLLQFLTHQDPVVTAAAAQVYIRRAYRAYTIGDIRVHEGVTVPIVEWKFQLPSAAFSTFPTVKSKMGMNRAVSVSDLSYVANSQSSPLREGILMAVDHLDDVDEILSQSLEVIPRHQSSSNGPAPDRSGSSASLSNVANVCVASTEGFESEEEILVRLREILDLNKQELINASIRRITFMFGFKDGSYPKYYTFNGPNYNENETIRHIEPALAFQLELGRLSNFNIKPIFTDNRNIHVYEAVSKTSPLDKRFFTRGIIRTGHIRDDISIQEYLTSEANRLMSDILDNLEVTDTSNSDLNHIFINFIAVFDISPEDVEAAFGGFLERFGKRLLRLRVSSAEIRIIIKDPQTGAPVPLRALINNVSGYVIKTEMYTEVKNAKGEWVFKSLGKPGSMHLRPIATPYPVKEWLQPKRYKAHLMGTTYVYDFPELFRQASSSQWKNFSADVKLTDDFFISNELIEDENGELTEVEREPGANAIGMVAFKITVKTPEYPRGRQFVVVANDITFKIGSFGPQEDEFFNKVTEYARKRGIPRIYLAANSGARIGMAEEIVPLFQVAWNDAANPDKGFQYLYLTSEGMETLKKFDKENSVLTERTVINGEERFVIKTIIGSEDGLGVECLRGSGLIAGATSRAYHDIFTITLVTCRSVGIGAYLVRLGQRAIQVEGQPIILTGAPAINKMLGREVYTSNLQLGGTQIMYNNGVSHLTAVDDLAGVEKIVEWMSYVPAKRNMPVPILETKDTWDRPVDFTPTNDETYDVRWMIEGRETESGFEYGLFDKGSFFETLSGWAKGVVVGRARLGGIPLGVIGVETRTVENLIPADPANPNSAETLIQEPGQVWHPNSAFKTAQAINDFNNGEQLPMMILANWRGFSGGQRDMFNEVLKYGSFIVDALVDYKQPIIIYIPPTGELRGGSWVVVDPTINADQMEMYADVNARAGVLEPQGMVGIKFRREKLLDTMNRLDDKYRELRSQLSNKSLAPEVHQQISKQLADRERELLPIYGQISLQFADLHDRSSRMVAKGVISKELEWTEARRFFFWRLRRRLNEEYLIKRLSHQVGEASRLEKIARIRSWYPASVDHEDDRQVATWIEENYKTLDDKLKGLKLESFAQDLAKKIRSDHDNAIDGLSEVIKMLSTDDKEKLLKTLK
In short: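 ADP-Glo luminescent ADP detection with 5 nM ACC2, 20 μM ATP, 20 μM acetyl-CoA, 12 mM NaHCO3, 2 mM DTT, 5% DMSO; compound (30 μM-0.00051 μM, 11 points) preincubated 15 min, reaction 60 min at room temperature. Percent inhibition against DMSO and positive controls; IC50 by four-parameter nonlinear fit.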

CCOC(=O)c1sc2c(c1C)c(=O)n(C(C)(C)C(=O)NC(C)C)c(=O)n2C[C@H](OCC(C)(C)C#N)c1cc(F)ccc1OC [Compound I-37, ethyl (R)-1-(2-(2-cyano-2-methylpropoxy)-2-(5-fluoro-2-methoxyphenyl)ethyl)-3-(1-(isopropylamino)-2-methyl-1-oxopropan-2-yl)-5-methyl-2,4-dioxo-1,2,3,4-tetrahydrothieno[2,3-d]pyrimidine-6-carboxylate]
IC90 (Botrtyis cinerea (Bc); Table 4b): 0.4 µg/mL (≈ 0.634 µM)
IC90 ([1]; Table 4b): 0.08 µg/mL (≈ 0.127 µM)
IC90 (Rhizoctonia solani (Rs); Table 4b): 2 µg/mL (≈ 3.17 µM)
IC90 ([2]; Table 4b): ≥ 50 µg/mL
IC90 (Diplodia maydis (Dm); Table 4b): 0.4 µg/mL (≈ 0.634 µM)
IC90 ([3]; Table 4b): 0.4 µg/mL (≈ 0.634 µM)
IC90 (Septoria tritici (St); Table 4b): ≥ 50 µg/mL
IC90 ([4]; Table 4b): 0.4 µg/mL (≈ 0.634 µM)
IC50 (fACC2; Table 2b (additional results)): 0.3 to 3 nM

CCOC(=O)c1sc2c(c1C)c(=O)n([C@H](C)C(N)=O)c(=O)n2C[C@H](OCCC#N)c1cc(F)ccc1OC [Compound I-26, ethyl 3-((R)-1-amino-1-oxopropan-2-yl)-1-((R)-2-(2-cyanoethoxy)-2-(5-fluoro-2-methoxyphenyl)ethyl)-5-methyl-2,4-dioxo-1,2,3,4-tetrahydrothieno[2,3-d]pyrimidine-6-carboxylate]
IC90 (Botrtyis cinerea (Bc); Table 4b): 10 µg/mL (≈ 18.3 µM)
IC90 ([1]; Table 4b): 10 µg/mL (≈ 18.3 µM)
IC90 (Rhizoctonia solani (Rs); Table 4b): 2 µg/mL (≈ 3.66 µM)
IC90 ([2]; Table 4b): ≥ 50 µg/mL
IC90 (Diplodia maydis (Dm); Table 4b): ≥ 50 µg/mL
IC90 ([3]; Table 4b): ≥ 50 µg/mL
IC90 (Septoria tritici (St); Table 4b): ≥ 50 µg/mL
IC90 ([4]; Table 4b): ≥ 50 µg/mL
IC50 (fACC2; Table 2b (additional results)): 0.3 to 3 nM

CCOC(=O)c1sc2c(c1C)c(=O)n(C(C)(C)C(=O)NC(C)C)c(=O)n2C[C@H](OC(C)C)c1ccccc1OC [Compound I-9, (R)-ethyl 1-(2-isopropoxy-2-(2-methoxyphenyl)ethyl)-3-(1-(isopropylamino)-2-methyl-1-oxopropan-2-yl)-5-methyl-2,4-dioxo-1,2,3,4-tetrahydrothieno[2,3-d]pyrimidine-6-carboxylate]
IC90 (Botrtyis cinerea (Bc); Table 4a): 0.4 µg/mL (≈ 0.697 µM)
IC90 (Botrtyis cinerea (Bc); Table 4b): 0.4 µg/mL (≈ 0.697 µM)
IC90 ([1]; Table 4a): 0.08 µg/mL (≈ 0.139 µM)
IC90 ([1]; Table 4b): 0.08 µg/mL (≈ 0.139 µM)
IC90 (Rhizoctonia solani (Rs); Table 4a): ≥ 50 µg/mL
IC90 (Rhizoctonia solani (Rs); Table 4b): 10 µg/mL (≈ 17.4 µM)
IC90 ([2]; Table 4a): ≥ 50 µg/mL
IC90 ([2]; Table 4b): ≥ 50 µg/mL
IC90 (Diplodia maydis (Dm); Table 4a): 0.4 µg/mL (≈ 0.697 µM)
IC90 (Diplodia maydis (Dm); Table 4b): 0.4 µg/mL (≈ 0.697 µM)
IC90 ([3]; Table 4a): 0.4 µg/mL (≈ 0.697 µM)
IC90 ([3]; Table 4b): 0.4 µg/mL (≈ 0.697 µM)
IC90 (Septoria tritici (St); Table 4a): ≥ 50 µg/mL
IC90 (Septoria tritici (St); Table 4b): ≥ 50 µg/mL
IC90 ([4]; Table 4a): 2 µg/mL (≈ 3.49 µM)
IC90 ([4]; Table 4b): 2 µg/mL (≈ 3.49 µM)
IC50 (fACC2; Table 2a): 0.6 to 3 nM
IC50 (fACC2; Table 2b (additional results)): 0.3 to 3 nM

CCOC(=O)c1sc2c(c1C)c(=O)n(C(C)(C)C(=O)NC(C)C)c(=O)n2C[C@H](OCCC#N)c1cc(F)ccc1OC [Compound I-15, (R)-ethyl 1-(2-(2-cyanoethoxy)-2-(5-fluoro-2-methoxy-phenyl)ethyl)-3-(1-(isopropylamino)-2-methyl-1-oxopropan-2-yl)-5-methyl-2,4-dioxo-1,2,3,4-tetrahydrothieno[2,3-d]pyrimidine-6-carboxylate]
IC90 (Botrtyis cinerea (Bc); Table 4a): 0.4 µg/mL (≈ 0.664 µM)
IC90 (Botrtyis cinerea (Bc); Table 4b): 0.4 µg/mL (≈ 0.664 µM)
IC90 ([1]; Table 4a): 0.08 µg/mL (≈ 0.133 µM)
IC90 ([1]; Table 4b): 0.08 µg/mL (≈ 0.133 µM)
IC90 (Rhizoctonia solani (Rs); Table 4a): 0.08 µg/mL (≈ 0.133 µM)
IC90 (Rhizoctonia solani (Rs); Table 4b): 0.08 µg/mL (≈ 0.133 µM)
IC90 ([2]; Table 4a): ≥ 50 µg/mL
IC90 ([2]; Table 4b): 10 µg/mL (≈ 16.6 µM)
IC90 (Diplodia maydis (Dm); Table 4a): 0.08 µg/mL (≈ 0.133 µM)
IC90 (Diplodia maydis (Dm); Table 4b): 0.08 µg/mL (≈ 0.133 µM)
IC90 ([3]; Table 4a): 0.4 µg/mL (≈ 0.664 µM)
IC90 ([3]; Table 4b): 0.4 µg/mL (≈ 0.664 µM)
IC90 (Septoria tritici (St); Table 4a): ≥ 50 µg/mL
IC90 (Septoria tritici (St); Table 4b): 10 µg/mL (≈ 16.6 µM)
IC90 ([4]; Table 4a): 0.08 µg/mL (≈ 0.133 µM)
IC90 ([4]; Table 4b): 0.08 µg/mL (≈ 0.133 µM)
IC50 (fACC2; Table 2a): 0.6 to 3 nM
IC50 (fACC2; Table 2b (additional results)): 0.3 to 3 nM

CCOC(=O)c1sc2c(c1C)c(=O)n(C(C)(C)C(=O)N1CCCC1)c(=O)n2C[C@H](OC(C)C)c1ccccc1OC [Compound I-7, (R)-ethyl 1-(2-isopropoxy-2-(2-methoxyphenyl)ethyl)-5-methyl-3-(2-methyl-1-oxo-1-(pyrrolidin-1-yl)propan-2-yl)-2,4-dioxo-1,2,3,4-tetrahydrothieno[2,3-d]pyrimidine-6-carboxylate]
IC90 (Botrtyis cinerea (Bc); Table 4a): 0.4 µg/mL (≈ 0.683 µM)
IC90 (Botrtyis cinerea (Bc); Table 4b): 0.4 µg/mL (≈ 0.683 µM)
IC90 ([1]; Table 4a): 0.08 µg/mL (≈ 0.137 µM)
IC90 ([1]; Table 4b): 0.08 µg/mL (≈ 0.137 µM)
IC90 (Rhizoctonia solani (Rs); Table 4a): 0.08 µg/mL (≈ 0.137 µM)
IC90 (Rhizoctonia solani (Rs); Table 4b): 0.08 µg/mL (≈ 0.137 µM)
IC90 ([2]; Table 4a): ≥ 50 µg/mL
IC90 ([2]; Table 4b): ≥ 50 µg/mL
IC90 (Diplodia maydis (Dm); Table 4a): 0.4 µg/mL (≈ 0.683 µM)
IC90 (Diplodia maydis (Dm); Table 4b): 0.4 µg/mL (≈ 0.683 µM)
IC90 ([3]; Table 4a): 0.4 µg/mL (≈ 0.683 µM)
IC90 ([3]; Table 4b): 0.4 µg/mL (≈ 0.683 µM)
IC90 (Septoria tritici (St); Table 4a): 10 µg/mL (≈ 17.1 µM)
IC90 (Septoria tritici (St); Table 4b): 2 µg/mL (≈ 3.41 µM)
IC90 ([4]; Table 4a): 0.4 µg/mL (≈ 0.683 µM)
IC90 ([4]; Table 4b): 0.4 µg/mL (≈ 0.683 µM)
IC50 (fACC2; Table 2a): 0.6 to 3 nM
IC50 (fACC2; Table 2b (additional results)): 0.3 to 3 nM

— patent US11098055B2, “Ester ACC inhibitors and uses thereof” (Gilead Apollo, LLC, priority 2015, dated 2021)
